Non-standard residues stand in square brackets, D forms with d. Residues, ends and D or L forms follow the SMILES beside them. No end group written: not given here. pGlu = O=C1CC[C@@H](C(=O)O)N1
Key:
[1] = test system: DmGPCR7; assay: FLIPR analysis of intracellular calcium release; type: cell-based, Drosophila melanogaster; details: DmGPCR7 in CHO-10001A cells; peptides with C-terminal HSWGa; given in words
Protocol: (§1) Changes in intracellular calcium levels are another recognized indicator of G protein-coupled receptor activity, and such assays can be employed to screen for modulators of DmGPCR activity. For example, CHO cells stably transfected with a DmGPCR expression vector are plated at a density of 4×10^4 cells/well in Packard black-walled, 96-well plates specially designed to discriminate fluorescence signals emanating from the various wells on the plate. The cells are incubated for 60 minutes at 37° C. in modified Dulbecco's PBS (D-PBS) containing 36 mg/L pyruvate and 1 g/L glucose and one of four calcium indicator dyes (Fluo-3™ AM, Fluo-4™ AM, Calcium Green™-1 AM, or Oregon Green™ 488 BAPTA-1 AM), each at a concentration of 4 μM. Plates are washed once with modified D-PBS and incubated for 10 minutes at 37° C. to remove residual dye from the cellular membrane. In addition, a series of washes with modified D-PBS is performed immediately prior to activation of the calcium response.
A calcium response is initiated by the addition of one or more candidate receptor agonist compounds, calcium ionophore A23187 (10 μM; positive control), or ATP (4 μM; positive control). Fluorescence is measured by Molecular Device's FLIPR with an argon laser (excitation at 488 nm). (See, e.g., Kuntzweiler et al., Drug Dev. Res., 1998, 44(1), 14-20). The F-stop for the detector camera was set at 2.5, and the length of exposure was 0.4 milliseconds. Basal fluorescence of cells was measured for 20 seconds prior to addition of candidate agonist, ATP, or A23187, and the basal fluorescence level was subtracted from the response signal. The calcium signal is measured for approximately 200 seconds, taking readings every two seconds. Calcium ionophore A23187 and ATP increase the calcium signal 200% above baseline levels. In general, activated GPCRs increase the calcium signal approximately 10-15% above baseline signal.
(§2) Originally, we have chosen the GTPγS assay as a functional assay because agonist-driven stimulation of GTPγS reflects early events in the DmGPCR activation cascade, regardless of further activation pathways of various down-stream signaling events. This appears especially useful for the assessment of possible activation of orphan DmGPCRs with unknown functions and unknown signaling pathways. The GTPγS assay was carried out with membranes prepared from CHO cells transiently transfected with DNA encoding Drosophila GPCRs using a 96-well MultiScreen G/FB filter plates and a MultiScreen vacuum manifold (Millipore) for filtration. Since the GTPγS assay is known to poorly recognize GPCRs coupled to the Gq class of G-proteins, a Ca^+2 mobilization assay based on a FLIPR readout was used as well to evaluate Gq-coupled orphan GPCRs in CHO cells transiently transfected with DNA encoding Drosophila GPCRs.

[2] = molecular target: DmGPCR5 (Drosophila melanogaster, UniProt P30975, L70Q); assay: biochemical; design: expressed in transfected cells; host or cells: CHO-1000A (so in the source), transient
Protocol: (§3) The transfected cells were washed once with ice-cold Dulbecco's phosphate buffered saline (PBS), 5 ml per 10 cm plate, and scraped into 5 ml of the same buffer. Cell suspensions from multiple plates were combined and centrifuged at 500×g for 10 min at 4° C. The cell pellet was reconstituted in ice-cold TEE (25 mM TRIS, 5 mM EGTA, 5 mM EDTA). Convenient aliquots were snap-frozen in liquid nitrogen and stored at −70° C. After thawing, the cells were homogenized and centrifuged at 4° C., 500×g for 5 minutes to pellet nuclei and unbroken cells. The supernatant was centrifuged at 47,000×g for 30 minutes at 4° C. The membrane pellet was washed once with TEE, resuspended in 20 mM HEPES, pH 7.4, 100 mM NaCl, 10 mM MgCl2, 1 mM EDTA (assay buffer), aliquoted and frozen in liquid nitrogen. Membrane aliquots were stored at −70° C. Membrane protein concentration was determined using the BCA Protein Assay Reagent from Pierce (Rockford, Ill.) and BSA as standard.
Initially, reaction mixtures were prepared in 96-well polypropylene plates (Nunc). In each well, peptide aqueous solution (20 μl, 10×), or water controls (20 μl), 18.2 μM GDP in assay buffer (0.11 ml, 10 μM final), and membranes suspended in assay buffer (50 μl, 10 μg membrane protein) were mixed and placed on ice. […] Then the membranes were washed 3 times with 0.25 ml ice-cold wash buffer/well (10 mM HEPES, 10 mM MgCl2, pH 7.4) and vacuum filtered. […] Each treatment was carried out in triplicates.
(§4) Ligand-induced stimulation of [^35S]GTPγS binding was expressed as fold increase over the basal activity with no ligand added. Each treatment was run either in triplicate, or, on occasion, in duplicate, and the binding (cpm) was calculated as means +/− standard deviations. Dose-response curves for the receptor/ligand systems were analyzed using a non-linear least square SAS model, y=Bmax X/(Kd+X). Other dose-response curves were analyzed using Prism (GraphPad Software, Inc. San Diego, Calif.) and the following equation y=Bottom+(Top−Bottom)/(1+10^LogEC50-X).
as §2

[3] = test system: DmGPCR1; assay: Ca+2 mobilization assay (FLIPR), transfected CHO cells; type: cell-based, Drosophila melanogaster
Protocol: as §1, with “Plates are washed once with modified D-PBS and incubated for 10 minutes at 37° C. to remove residual dye from the cellular membrane. In addition, a series of washes with modified D-PBS is performed immediately prior to activation of the calcium response.” left out
(§5) A calcium response is initiated by the addition of one or more candidate receptor agonist compounds, calcium ionophore A23187 (10 μM; positive control), or ATP (4 μM; positive control). Fluorescence is measured by Molecular Device's FLIPR with an argon laser (excitation at 488 nm). […] Basal fluorescence of cells was measured for 20 seconds prior to addition of candidate agonist, ATP, or A23187, and the basal fluorescence level was subtracted from the response signal. The calcium signal is measured for approximately 200 seconds, taking readings every two seconds. […]

[4] = molecular target: DmGPCR8; assay: [35S]GTPγS binding assay, dose response; type: biochemical, Drosophila melanogaster; details: DmGPCR8 in CHO-10001A cells; given in words
Protocol: as §3, with “The membrane pellet was washed once with TEE, resuspended in 20 mM HEPES, pH 7.4, 100 mM NaCl, 10 mM MgCl2, 1 mM EDTA (assay buffer), aliquoted and frozen in liquid nitrogen. Membrane aliquots were stored at −70° C.” left out, “standard. […]” for “standard.”
as §4, with “y=Bottom+(Top−Bottom)/(1+10^LogEC50-X). […]” for “y=Bottom+(Top−Bottom)/(1+10^LogEC50-X).”
Target sequence in this assay (as listed by the source): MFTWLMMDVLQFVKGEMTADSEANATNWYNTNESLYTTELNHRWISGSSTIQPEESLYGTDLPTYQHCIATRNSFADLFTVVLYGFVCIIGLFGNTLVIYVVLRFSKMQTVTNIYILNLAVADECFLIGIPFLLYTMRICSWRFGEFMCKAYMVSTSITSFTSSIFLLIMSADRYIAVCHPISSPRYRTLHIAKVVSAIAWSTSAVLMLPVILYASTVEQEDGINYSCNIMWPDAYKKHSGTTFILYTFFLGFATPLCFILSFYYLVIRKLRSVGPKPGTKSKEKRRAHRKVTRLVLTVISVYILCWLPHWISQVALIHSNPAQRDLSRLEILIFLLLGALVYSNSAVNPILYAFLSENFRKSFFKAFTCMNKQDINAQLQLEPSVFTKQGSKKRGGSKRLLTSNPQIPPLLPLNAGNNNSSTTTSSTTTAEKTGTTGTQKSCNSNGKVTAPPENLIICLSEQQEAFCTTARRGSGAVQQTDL

[5] = test system: DmGPCR8; assay: direct calcium mobilization assay (FLIPR); type: cell-based, Drosophila melanogaster; details: DmGPCR8 without chimeric G-protein
Protocol: as §1, with “Plates are washed once with modified D-PBS and incubated for 10 minutes at 37° C. to remove residual dye from the cellular membrane. In addition, a series of washes with modified D-PBS is performed immediately prior to activation of the calcium response.” left out
as §5
Target sequence in this assay (as listed by the source): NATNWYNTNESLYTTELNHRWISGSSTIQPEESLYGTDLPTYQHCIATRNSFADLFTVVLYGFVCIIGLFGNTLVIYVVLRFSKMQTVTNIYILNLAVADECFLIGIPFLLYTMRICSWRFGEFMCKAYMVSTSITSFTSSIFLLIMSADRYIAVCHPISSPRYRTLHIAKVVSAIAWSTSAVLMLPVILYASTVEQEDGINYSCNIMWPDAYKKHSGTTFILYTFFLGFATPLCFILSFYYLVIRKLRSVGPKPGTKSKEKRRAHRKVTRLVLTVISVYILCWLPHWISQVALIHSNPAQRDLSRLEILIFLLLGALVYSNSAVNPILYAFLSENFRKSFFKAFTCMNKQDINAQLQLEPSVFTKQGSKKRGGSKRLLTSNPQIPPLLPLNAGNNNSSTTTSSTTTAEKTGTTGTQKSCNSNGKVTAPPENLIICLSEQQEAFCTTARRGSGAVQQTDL

[6] = test system: CHO cells stably transfected with a DmGPCR expression vector; assay: Intracellular calcium measurement using FLIPR, positive controls; type: cell-based, Chinese hamster; details: positive controls: A23187 10 μM, ATP 4 μM
Protocol: as §1, with “Plates are washed once with modified D-PBS and incubated for 10 minutes at 37° C. to remove residual dye from the cellular membrane. In addition, a series of washes with modified D-PBS is performed immediately prior to activation of the calcium response.” left out
as §5

[7] = test system: DmGPCR9; assay: calcium mobilization assay (FLIPR); type: cell-based, Drosophila melanogaster; details: tested at 10 μM
Protocol: as §1, with “Plates are washed once with modified D-PBS and incubated for 10 minutes at 37° C. to remove residual dye from the cellular membrane. In addition, a series of washes with modified D-PBS is performed immediately prior to activation of the calcium response.” left out
as §5

DmGPCR7, sequence (as listed by the source): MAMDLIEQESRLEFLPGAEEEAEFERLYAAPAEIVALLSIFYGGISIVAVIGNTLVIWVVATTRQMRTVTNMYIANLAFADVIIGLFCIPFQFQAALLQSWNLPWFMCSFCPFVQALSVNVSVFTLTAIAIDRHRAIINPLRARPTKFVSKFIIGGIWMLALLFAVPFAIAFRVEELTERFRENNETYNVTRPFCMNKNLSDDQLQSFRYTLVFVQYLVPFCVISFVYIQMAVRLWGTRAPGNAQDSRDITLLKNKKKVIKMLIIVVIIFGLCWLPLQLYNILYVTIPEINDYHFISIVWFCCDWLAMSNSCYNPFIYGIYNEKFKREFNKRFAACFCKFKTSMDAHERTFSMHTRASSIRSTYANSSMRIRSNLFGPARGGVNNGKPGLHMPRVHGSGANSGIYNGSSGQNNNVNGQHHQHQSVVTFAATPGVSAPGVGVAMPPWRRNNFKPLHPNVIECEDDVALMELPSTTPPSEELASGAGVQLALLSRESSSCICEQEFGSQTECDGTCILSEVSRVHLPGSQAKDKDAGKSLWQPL
DmGPCR9, sequence (as listed by the source): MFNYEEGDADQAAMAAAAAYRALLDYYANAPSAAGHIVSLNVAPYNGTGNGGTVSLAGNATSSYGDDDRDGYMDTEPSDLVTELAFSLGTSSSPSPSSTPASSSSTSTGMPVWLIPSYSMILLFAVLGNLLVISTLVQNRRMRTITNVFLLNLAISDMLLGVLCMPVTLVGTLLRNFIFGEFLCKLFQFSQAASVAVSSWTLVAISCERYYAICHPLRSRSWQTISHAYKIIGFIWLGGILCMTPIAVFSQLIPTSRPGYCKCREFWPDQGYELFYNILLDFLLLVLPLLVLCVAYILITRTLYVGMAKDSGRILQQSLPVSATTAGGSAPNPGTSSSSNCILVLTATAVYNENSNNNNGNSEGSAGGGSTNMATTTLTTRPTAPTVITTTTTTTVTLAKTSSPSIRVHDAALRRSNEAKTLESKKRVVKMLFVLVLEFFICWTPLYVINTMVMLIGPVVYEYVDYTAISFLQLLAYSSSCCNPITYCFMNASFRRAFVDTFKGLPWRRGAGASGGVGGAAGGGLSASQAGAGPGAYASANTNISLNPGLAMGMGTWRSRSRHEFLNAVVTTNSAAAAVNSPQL
DmGPCR5, sequence (P30975 whole entry L70Q): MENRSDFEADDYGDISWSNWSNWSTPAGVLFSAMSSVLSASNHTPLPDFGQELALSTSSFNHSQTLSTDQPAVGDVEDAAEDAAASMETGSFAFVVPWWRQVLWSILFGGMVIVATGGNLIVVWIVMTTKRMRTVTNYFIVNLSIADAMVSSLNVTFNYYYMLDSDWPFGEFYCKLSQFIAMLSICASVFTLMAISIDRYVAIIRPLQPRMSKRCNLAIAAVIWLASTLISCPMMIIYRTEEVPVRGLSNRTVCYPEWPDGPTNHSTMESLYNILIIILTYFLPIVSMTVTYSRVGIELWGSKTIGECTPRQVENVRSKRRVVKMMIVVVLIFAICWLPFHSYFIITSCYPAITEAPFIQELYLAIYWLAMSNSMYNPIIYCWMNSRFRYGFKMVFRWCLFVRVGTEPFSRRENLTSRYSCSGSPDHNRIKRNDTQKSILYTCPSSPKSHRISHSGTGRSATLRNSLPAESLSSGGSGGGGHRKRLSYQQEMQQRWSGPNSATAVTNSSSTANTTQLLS

In the case of QRFHSWG [DLK-2a, QRFHSWGa], the “EC50, intracellular calcium release (FLIPR)” value [1] is reported as “picomoloar to subnanomolar range”.
Molecule CSCC[C@H](NC(=O)CNC(=O)[C@@H](NC(=O)[C@H](Cc1ccccc1)NC(=O)CNC(=O)[C@@H](NC(=O)[C@@H]1CCCN1C(=O)[C@H](C)N)[C@@H](C)O)[C@@H](C)O)C(=O)N[C@@H](CCCNC(=N)N)C(N)=O [DTK-3, APTGFTGMR-NH2] (H-APTGFTGMR-NH2) has an EC50 [2] of 250 to 500 nM.
In the case of NPFHSWG [Culekinin, NPFHSWGa], the “EC50, intracellular calcium release (FLIPR)” value [1] is reported as “picomoloar to subnanomolar range”.
With “NSVVLGKKQRFHSWGa (NSVVLGKKQRFHSWG-NH2) [DLK-1]” the “EC50, intracellular calcium release (FLIPR)” value [1] was “picomoloar to subnanomolar range”.
With CC(C)C[C@H](NC(=O)[C@H](CCCNC(=N)N)NC(=O)[C@H](CC(C)C)NC(=O)[C@H](CCC(N)=O)NC(=O)[C@@H]1CCCN1C(=O)CNC(=O)[C@H](CCCNC(=N)N)NC(=O)[C@H](C)N)C(=O)N[C@@H](CCCNC(=N)N)C(=O)N[C@@H](Cc1ccccc1)C(N)=O [ARGPQLRLRF-NH2] (H-ARGPQLRLRF-NH2; N-terminus assumed) the EC50 [3] was 100 to 200 nM.
In the case of “[pGlu]VRFQCYFNPISCF-OH (cysteine pairing not given here) [AST-C]”, the “EC50, GTPγS-binding responses” value [4] is reported as “low nanomolar range” and the “activity in direct calcium mobilization assay (FLIPR)” value [5] is reported as “did not show any activity”.
In the case of CNc1ccc2oc(C[C@H]3O[C@@]4(CC[C@H]3C)O[C@H]([C@H](C)C(=O)c3ccc[nH]3)[C@H](C)C[C@H]4C)nc2c1C(=O)O [A23187], the “increase of the calcium signal above baseline levels” value [6] is reported as 200%.
In the case of Nc1ncnc2c1ncn2[C@@H]1O[C@H](COP(=O)(O)OP(=O)(O)OP(=O)(O)O)[C@@H](O)[C@H]1O [ATP], the “increase of the calcium signal above baseline levels” value [6] is reported as 200%.
In the case of “FDDYGHLRF-NH2 [unsulfated counterpart of FDDY(SO3H)GHLRF-NH2]”, the calcium signal [7] is reported as “very weak calcium signal”.

Source: patent US7364866B2, “Drosophila G protein coupled receptors, nucleic acids, and methods related to the same” (Pharmacia & Upjohn Company, priority 1999, dated 2008)
